Tests used:
LIM kinase 1 (LIMK1) [1] = target: T1, LIM kinase 1 (LIMK1) (Homo sapiens, UniProt P53667); assay: Kinase Glo luciferase ATP-depletion assay with recombinant cofilin, […] ATP; format: biochemical
LIM kinase 1 (LIMK1) [2] = target: T1, LIM kinase 1 (LIMK1); assay: apparent Km determination in luciferase ATP-depletion kinase assay with cofilin; format: biochemical

T1 sequence (P53667 339-604 limits assumed): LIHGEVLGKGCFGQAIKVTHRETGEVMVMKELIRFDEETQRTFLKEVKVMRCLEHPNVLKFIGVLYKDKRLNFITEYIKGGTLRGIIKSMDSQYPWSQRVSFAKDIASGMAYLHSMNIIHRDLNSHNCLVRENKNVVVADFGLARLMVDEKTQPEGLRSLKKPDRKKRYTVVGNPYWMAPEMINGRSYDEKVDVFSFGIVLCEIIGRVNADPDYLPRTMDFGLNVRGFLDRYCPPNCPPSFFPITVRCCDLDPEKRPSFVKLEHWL

IC50 (LIM kinase 1 (LIMK1) [1]) | Km (LIM kinase 1 (LIMK1) [2]) | SMILES
0.019 µM |  | COc1c(C=O)c(O)cc2c1C(=O)c1ccccc1C2=O [damnacanthal]
 | 10 to 20 µM | Nc1ncnc2c1ncn2[C@@H]1O[C@H](COP(=O)(O)OP(=O)(O)OP(=O)(O)O)[C@@H](O)[C@H]1O [ATP]
